Patent publication US8614223B2, “Pyrimidine hydroxy amide compounds as protein deacetylase inhibitors and methods of use thereof” (Acetylon Pharmaceuticals, Inc., priority 2010, dated 2013)

Tests used:
HDAC1 = HDAC1 (Homo sapiens (Human), UniProt Q13547); test: HDAC enzyme assay, HDAC1; conditions: read-out: HDAC1 IC50
HDAC2 = HDAC2 (Homo sapiens (Human), UniProt Q92769); test: HDAC enzyme assay, HDAC2; conditions: read-out: HDAC2 IC50
HDAC3 = HDAC3 (Homo sapiens (Human), UniProt O15379); test: HDAC enzyme assay, HDAC3; conditions: read-out: HDAC3 IC50
Sequence of HDAC3 (O15379 whole entry): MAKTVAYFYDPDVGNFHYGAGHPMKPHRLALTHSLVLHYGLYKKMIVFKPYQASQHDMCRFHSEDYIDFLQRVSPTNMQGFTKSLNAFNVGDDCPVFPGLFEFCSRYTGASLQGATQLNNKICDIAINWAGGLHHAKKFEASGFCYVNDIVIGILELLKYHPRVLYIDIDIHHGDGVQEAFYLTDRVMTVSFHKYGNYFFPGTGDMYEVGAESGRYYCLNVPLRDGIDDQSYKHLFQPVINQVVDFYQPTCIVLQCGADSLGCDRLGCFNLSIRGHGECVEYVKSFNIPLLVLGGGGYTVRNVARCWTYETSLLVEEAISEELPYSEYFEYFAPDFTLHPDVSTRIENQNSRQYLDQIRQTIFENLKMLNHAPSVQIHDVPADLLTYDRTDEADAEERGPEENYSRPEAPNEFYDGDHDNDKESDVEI
Sequence of HDAC3 (Q9Y618 395-489 partner): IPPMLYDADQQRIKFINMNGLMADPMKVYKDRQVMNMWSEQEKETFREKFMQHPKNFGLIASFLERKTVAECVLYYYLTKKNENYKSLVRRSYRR

HDAC6 = HDAC6 (Homo sapiens (Human), UniProt Q9UBN7); conditions: read-out: HDAC6 IC50
Sequence of HDAC6 (Q9UBN7 whole entry): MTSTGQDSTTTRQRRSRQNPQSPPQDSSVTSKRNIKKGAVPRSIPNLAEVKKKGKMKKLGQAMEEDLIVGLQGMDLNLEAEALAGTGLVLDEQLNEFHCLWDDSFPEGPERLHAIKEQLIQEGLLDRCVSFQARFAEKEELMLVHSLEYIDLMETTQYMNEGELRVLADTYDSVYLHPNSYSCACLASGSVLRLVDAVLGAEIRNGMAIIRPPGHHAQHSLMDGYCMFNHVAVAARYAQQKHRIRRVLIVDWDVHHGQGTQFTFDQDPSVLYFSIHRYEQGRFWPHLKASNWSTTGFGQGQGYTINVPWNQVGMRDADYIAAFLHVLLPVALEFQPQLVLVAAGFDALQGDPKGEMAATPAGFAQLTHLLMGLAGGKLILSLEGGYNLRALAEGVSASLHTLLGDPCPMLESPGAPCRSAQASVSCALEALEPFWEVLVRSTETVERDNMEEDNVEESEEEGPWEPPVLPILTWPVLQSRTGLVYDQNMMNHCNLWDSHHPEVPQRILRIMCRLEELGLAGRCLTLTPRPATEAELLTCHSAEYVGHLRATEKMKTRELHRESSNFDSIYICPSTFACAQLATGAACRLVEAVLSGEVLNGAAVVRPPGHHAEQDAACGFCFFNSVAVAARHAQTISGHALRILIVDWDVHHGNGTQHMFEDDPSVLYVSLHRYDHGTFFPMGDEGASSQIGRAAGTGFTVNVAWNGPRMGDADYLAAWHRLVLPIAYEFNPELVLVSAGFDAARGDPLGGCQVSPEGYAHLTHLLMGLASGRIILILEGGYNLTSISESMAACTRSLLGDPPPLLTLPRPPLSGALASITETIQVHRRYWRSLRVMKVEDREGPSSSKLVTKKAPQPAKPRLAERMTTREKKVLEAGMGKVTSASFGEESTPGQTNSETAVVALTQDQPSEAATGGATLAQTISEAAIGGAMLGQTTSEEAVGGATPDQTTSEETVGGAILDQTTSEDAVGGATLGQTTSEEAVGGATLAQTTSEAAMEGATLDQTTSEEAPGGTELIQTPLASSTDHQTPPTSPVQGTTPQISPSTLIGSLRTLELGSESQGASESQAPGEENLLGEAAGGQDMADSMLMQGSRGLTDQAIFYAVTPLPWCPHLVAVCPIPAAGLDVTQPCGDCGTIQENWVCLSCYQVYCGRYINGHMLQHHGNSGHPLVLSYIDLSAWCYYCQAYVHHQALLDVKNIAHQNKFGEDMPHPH

Sequence of HDAC2 (Q92769 whole entry): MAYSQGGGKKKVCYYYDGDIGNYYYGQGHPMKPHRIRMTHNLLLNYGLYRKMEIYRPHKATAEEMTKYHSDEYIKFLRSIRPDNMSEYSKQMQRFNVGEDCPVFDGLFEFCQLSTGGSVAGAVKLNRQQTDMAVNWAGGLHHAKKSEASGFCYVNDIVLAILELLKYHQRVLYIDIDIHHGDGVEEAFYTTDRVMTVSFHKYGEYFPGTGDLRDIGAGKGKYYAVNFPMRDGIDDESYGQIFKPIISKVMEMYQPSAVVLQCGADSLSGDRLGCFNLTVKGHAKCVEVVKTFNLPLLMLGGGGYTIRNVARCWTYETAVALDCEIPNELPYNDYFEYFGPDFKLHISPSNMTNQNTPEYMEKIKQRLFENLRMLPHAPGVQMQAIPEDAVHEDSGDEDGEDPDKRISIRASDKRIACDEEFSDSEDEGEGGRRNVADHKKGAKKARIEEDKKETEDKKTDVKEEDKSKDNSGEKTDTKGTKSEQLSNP
Sequence of HDAC1 (Q13547 whole entry): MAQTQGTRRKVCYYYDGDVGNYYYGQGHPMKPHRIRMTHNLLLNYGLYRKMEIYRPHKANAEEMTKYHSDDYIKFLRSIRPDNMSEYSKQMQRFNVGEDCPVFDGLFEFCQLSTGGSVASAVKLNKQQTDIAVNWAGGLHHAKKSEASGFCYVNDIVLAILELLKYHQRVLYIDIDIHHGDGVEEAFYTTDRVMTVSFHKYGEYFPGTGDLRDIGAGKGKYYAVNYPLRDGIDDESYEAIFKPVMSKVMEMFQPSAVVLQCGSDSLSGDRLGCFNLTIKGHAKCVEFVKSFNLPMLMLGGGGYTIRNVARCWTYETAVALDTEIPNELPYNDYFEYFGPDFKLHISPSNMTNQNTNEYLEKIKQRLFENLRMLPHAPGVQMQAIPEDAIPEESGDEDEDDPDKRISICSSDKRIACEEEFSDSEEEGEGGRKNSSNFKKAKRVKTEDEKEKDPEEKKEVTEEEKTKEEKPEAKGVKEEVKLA

Compound | IC50 (HDAC1) [nM] | IC50 (HDAC2) [nM] | IC50 (HDAC3) [nM] | IC50 (HDAC6) [nM]
Cc1ccccc1C1(Nc2ncc(C(=O)NO)cn2)CC1 [Compound 127] | 50 | 57 | 119 | 
O=C(NO)c1cnc(NC2(c3cc(Cl)cc(Cl)c3)CC2)nc1 [Compound 146] | 16 | 22 | 57 | 
O=C(NO)c1cnc(NC2(c3cccc(F)c3)CC2)nc1 [Compound 87] | 85 | 116 | 233 | 
O=C(NO)c1cnc(NC2(c3ccc(Cl)cc3)CC2)nc1 [Compound 136] | 45 | 40 | 107 | 
O=C(NO)c1cnc(NC2(c3cccc(Cl)c3)CCCC2)nc1 [Compound 153] | 528 | 491 | 1260 | 
O=C(NO)c1cnc(NC2(c3ccccc3F)CC2)nc1 [Compound 82] | 16 | 18 | 22 | 
O=C(NO)c1cnc(NCc2ccncc2)nc1 [Compound 69] | 204 |  | 299 | 5
C[C@H](Nc1ncc(C(=O)NO)cn1)c1ccccc1 [Compound 65] |  |  |  | 19
O=C(NO)c1cnc(Nc2ccc(Cl)c(Cl)c2)nc1 [Compound 2] | 264 |  | 299 | 5
CN(c1ccc(Cl)c(Cl)c1)c1ncc(C(=O)NO)cn1 [Compound 8] |  |  | 219 | 38
COc1cccc(C2(Nc3ncc(C(=O)NO)cn3)CC2)c1 [Compound 120] | 38 | 53 | 128 | 
O=C(NO)c1cnc(NC2(c3cccc(C(F)(F)F)c3)CC2)nc1 [Compound 121] | 27 | 32 | 99 | 
O=C(NO)c1cnc(NC2(c3cccs3)CC2)nc1 [Compound 98] | 147 |  | 4250 | 4
C[C@@H](Nc1ncc(C(=O)NO)cn1)c1ccccc1 [Compound 66] |  |  |  | 1
COc1cc(F)ccc1CNc1ncc(C(=O)NO)cn1 [Compound 49] | 219 | 338 | 303 | 
CC(C)(Nc1ncc(C(=O)NO)cn1)c1ccccc1F [Compound 71] | 500 | 912 | 1260 | 
O=C(NO)c1cnc(NCc2ccc3c(c2)OCO3)nc1 [Compound 46] | 40 | 53 | 58 | 
C[C@@H](Nc1ncc(C(=O)NO)cn1)c1ccccc1 [Compound 62] |  |  |  | 2
CC(Nc1ncc(C(=O)NO)cn1)c1ccccc1 (stereo not drawn) [Compound 32] |  |  |  | 2
Cc1cccc(C2(Nc3ncc(C(=O)NO)cn3)CC2)c1 [Compound 134] | 47 | 40 | 99 | 
O=C(NO)c1cnc(NCCc2ccc(Cl)cc2)nc1 [Compound 44] | 173 |  | 307 | 11
O=C(NO)c1cnc(NC2(c3cccc(Cl)c3)CC2)nc1 [Compound 94] | 22 |  | 50 | 
O=C(NO)c1cnc(NCCc2ccccc2)nc1 [Compound 41] | 214 |  | 326 | 4
C[C@H](Nc1ncc(C(=O)NO)cn1)c1ccccc1 [Compound 61] |  |  |  | 37
O=C(NO)c1cnc(NC2(c3ccc(F)c(Cl)c3)CC2)nc1 [Compound 131] | 17 | 19 | 62 | 
O=C(NO)c1cnc(NC2(c3ccc(Cl)c(Cl)c3)CC2)nc1 [Compound 141] | 13 | 17 | 54 | 
CC(Nc1ncc(C(=O)NO)cn1)c1ccccc1 (stereo not drawn) [Compound 67] |  |  |  | 2
Cc1cc(Cl)ccc1CNc1ncc(C(=O)NO)cn1 [Compound 52] | 185 |  |  | 3
